{
  "source": "patent US20260265055A1",
  "about": "“Sulfine-Based Compounds for Generating Hydrogen Persulfide” (Brown University, priority 2023, published 2026)",
  "experiment": "Measurement of H2S2 formation from JK-1 with TTS (SSP4)",
  "conditions": "TTS 200 μM + JK-1 400 μM, 30 min incubation, pH 7.4",
  "description": "Measurement of H2S2 formation from JK-1 with TTS: JK-1 (1.1 mg) was added to a 1 dram vial and 4.484 mL of 50 mM PBS (pH 6.0) was then added to obtain a 1 mM stock solution with no headspace in the vial. The solution was vortexed to mix and then incubated in the dark at rt for 20 min. Based on the H2S-release profile reported under the same conditions (see Kang, J. et al., J. Am. Chem. Soc. 2016, 138, 6336), 400 μM of H2S (40% of 1 mM) should be released. The pH of the solution was then adjusted to 7.4 by adding 16 μL 2N NaOH. The same volume of 50 mM PBS (pH 6.0) buffer was added to an empty 1 dram vial and 16 μL of 2N NaOH was added to adjust the pH of the buffer similarly for the controls. After incubation, 500 μL of the pH-adjusted PBS was aliquoted to nine 1.5 mL Eppendorf tubes while the same volume of JK-1 solution was aliquoted into six 1.5 mL Eppendorf tubes. […] 200 μL of each tube was then added to separate wells on a 96-well black flat clear-bottomed plate before being measured on a Molecular Devices SpectraMax iD3 Multi-Mode Microplate Reader (emission 535 nm; excitation 485 nm; integration time […], low PMT sensitivity, attenuation 1, read height 3.00 mm).\nJK-1 in buffer was mixed with TTS to generate H2S2. After a 30 min incubation, the formation of H2S2 was measured by SSP4.",
  "data": [
    {"smiles": "COC(=O)c1ccc(=S=O)sc1", "note": "[TTS, 2H-thiopyran-2-thione sulfine]", "values": [
      {"measurement": "SSP4 fluorescence (H2S2 formation)", "result": "strong fluorescence"}
    ]}
  ]
}
